The results in this text go back to patent US20230399312A1, “SUBSTITUTED PYRIMIDINES AND METHODS OF USE” (THERAVANCE BIOPHARMA R&D IP, LLC, priority 2020, published 2023).

The structures appear in SMILES notation.

The test system of assay [1] is TGF-β-stimulated SMAD3 phosphorylation in BEAS-2B cells. The assay can be described thus: Cellular ALK5 potency assay, inhibition of TGF-β stimulated pSMAD3 formation in BEAS-2B cells. The format is cell-based. To be noted: Homo sapiens, pSMAD3, TGF-β 10 ng/mL, read-out: BEAS2B pIC50 (converted). An outline of the steps:
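Reported as pIC50, potency reflects dose-dependent loss of AlphaLISA pSMAD3 signal versus TGF-β-stimulated, compound-free BEAS-2B cells. Compound was applied for 1 h in BSA-containing HBSS buffer before a 30-min challenge with TGF-β at 10 ng/mL final.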

Assay [2] addresses T1, recombinant human ALK5 (TGF-βR1) protein (Homo sapiens, UniProt P36897).
T1 construct: purchased Life Technologies PR9075A
T1 sequence (P36897 34-503): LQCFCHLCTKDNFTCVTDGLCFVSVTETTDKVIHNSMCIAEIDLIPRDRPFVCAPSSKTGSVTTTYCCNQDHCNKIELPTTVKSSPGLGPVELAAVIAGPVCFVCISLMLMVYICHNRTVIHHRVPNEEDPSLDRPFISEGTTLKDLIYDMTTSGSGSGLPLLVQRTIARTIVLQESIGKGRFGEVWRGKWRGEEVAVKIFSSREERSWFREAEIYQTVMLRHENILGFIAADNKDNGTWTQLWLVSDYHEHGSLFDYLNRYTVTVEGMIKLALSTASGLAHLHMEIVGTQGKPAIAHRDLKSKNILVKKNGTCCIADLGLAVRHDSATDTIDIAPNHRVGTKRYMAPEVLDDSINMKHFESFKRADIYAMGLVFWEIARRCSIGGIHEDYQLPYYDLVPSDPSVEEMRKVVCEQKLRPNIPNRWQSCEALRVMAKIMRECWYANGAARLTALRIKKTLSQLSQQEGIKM
The assay is described as follows: Biochemical ALK5 (TGF-βR1) assay to measure pKi (LANCE Ultra ULight kinase assay). To be noted: apparent pKi, converted from pIC50 by Cheng-Prusoff. A digest of the protocol: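 Enzyme was preincubated with compound for 60 min at room temperature, then ATP (added from a 125 μM 5× stock with 2 mM DTT) started a 60 min reaction at 37 °C. EDTA plus Eu-anti-phospho-Topo2α (Thr1342) antibody stopped it; TR-FRET pIC50 values were converted to pKi by Cheng-Prusoff.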

On to `Cc1cccc(-c2nccc(Nc3ccnc(Nc4ccc(CN5CCCC(C(=O)NC6CNC6)C5)cc4)n3)n2)n1` (stereo not drawn) [Compound 214, N-(azetidin-3-yl)-1-[[4-[[4-[[2-(6-methyl-2-pyridyl)pyrimidin-4-yl]amino]pyrimidin-2-yl]amino]phenyl]methyl] piperidine-3-carboxamide], for which the IC50 in assay [1] was 25.1 to 158 nM. Further, the Ki in assay [2] is 0.0398 to 0.316 nM.

On to `Cc1cccc(-c2nccc(Nc3ccnc(Nc4csc(C(=O)OC[C@H]5CCCN5)c4)n3)n2)n1` [Compound 583, [(2R)-pyrrolidin-2-yl]methyl 4-[[4-[[2-(6-methyl-2-pyridyl)pyrimidin-4-yl]amino]pyrimidin-2-yl]amino]thiophene-2-carboxylate], for which the IC50 in assay [1] is 25.1 to 158 nM. For the same compound, in assay [2], the Ki is 0.0398 to 0.316 nM.

Regarding `Cc1cccc(-c2nccc(Nc3ccnc(Nc4cccc(CN5CCOCC5)c4)n3)n2)n1` [Compound 141, N4-[2-(6-methyl-2-pyridyl)pyrimidin-4-yl]-N2-[3-(morpholinomethyl)phenyl] pyrimidine-2,4-diamine], the IC50 in assay [1] is 25.1 to 158 nM. Also, the Ki in assay [2] is 0.0398 to 0.316 nM.

In the case of `Cc1cccc(-c2nccc(Nc3ccnc(Nc4csc(C(=O)OCCN5C[C@@H](C)N[C@@H](C)C5)c4)n3)n2)n1` [Compound 627, 2-[(3S,5R)-3,5-dimethylpiperazin-1-yl]ethyl 4-[[4-[[2-(6-methyl-2-pyridyl)pyrimidin-4-yl]amino]pyrimidin-2-yl]amino]thiophene-2-carboxylate], the IC50 in assay [1] was 25.1 to 158 nM. The Ki in assay [2] is 0.0398 to 0.316 nM.

For the compound `Cc1cccc(-c2nccc(Nc3ccnc(Nc4ccc(S(=O)(=O)N5CCN(C)CC5)cc4)n3)n2)n1` [Compound 270, N2-[4-(4-methylpiperazin-1-yl)sulfonylphenyl]-N4-[2-(6-methyl-2-pyridyl)pyrimidin-4-yl]pyrimidine-2,4-diamine], the IC50 in assay [1] was 25.1 to 158 nM. In addition, the Ki in assay [2] is 0.0398 to 0.316 nM.

Turning to `Cc1cccc(-c2nccc(Nc3ccnc(Nc4ccc(C5=CCNCC5)cc4)n3)n2)n1` [Compound 193, N4-[2-(6-methyl-2-pyridyl)pyrimidin-4-yl]-N2-[4-(1,2,3,6-tetrahydropyridin-4-yl)phenyl]pyrimidine-2,4-diamine], the IC50 in assay [1] is no more than 20 nM. For the same compound, the Ki in assay [2] is 0.0398 to 0.316 nM.

Take `Cc1cccc(-c2nccc(Nc3ccnc(Nc4ccc(C(=O)OCC5CNC5)s4)n3)n2)n1` [Compound 100, azetidin-3-ylmethyl 5-[[4-[[2-(6-methyl-2-pyridyl)pyrimidin-4-yl]amino]pyrimidin-2-yl]amino]thiophene-2-carboxylate]: the IC50 in assay [1] is 25.1 to 158 nM. For the same compound, in assay [2], the Ki was 0.0398 to 0.316 nM.

As to `Cc1cccc(-c2nccc(Nc3ccnc(Nc4ccc5c(c4)OCCO5)n3)n2)n1` [Compound 526, N2-(2,3-dihydro-1,4-benzodioxin-6-yl)-N4-[2-(6-methyl-2-pyridyl)pyrimidin-4-yl]pyrimidine-2,4-diamine], the IC50 in assay [1] was 25.1 to 158 nM. The Ki in assay [2] was 3.98 to 31.6 nM.

On to `Cc1cccc(-c2nccc(Nc3ccnc(Nc4ccc(N5CC6(CNC6)C5)cc4)n3)n2)n1` [Compound 15, N2-[4-(2,6-diazaspiro[3.3]heptan-2-yl)phenyl]-N4-[2-(6-methyl-2-pyridyl)pyrimidin-4-yl]pyrimidine-2,4-diamine], for which the IC50 in assay [1] is 25.1 to 158 nM. Further, in assay [2], the Ki is 0.0398 to 0.316 nM.

Regarding `Cc1cccc(-c2nccc(Nc3ccnc(Nc4ccc(N5CCC(N(C)C)CC5)cc4)n3)n2)n1` [Compound 394, N2-[4-[4-(dimethylamino)-1-piperidyl]phenyl]-N4-[2-(6-methyl-2-pyridyl)pyrimidin-4-yl]pyrimidine-2,4-diamine], the IC50 in assay [1] is 200 to 1260 nM. In addition, the Ki in assay [2] is 0.0398 to 0.316 nM.

On to `Cc1cccc(-c2nccc(Nc3ccnc(Nc4ccc(CN5CCC(C(=O)OCC6CNC6)C5)cc4)n3)n2)n1` (stereo not drawn) [Compound 518, azetidin-3-ylmethyl 1-[[4-[[4-[[2-(6-methyl-2-pyridyl)pyrimidin-4-yl]amino]pyrimidin-2-yl]amino]phenyl]methyl] pyrrolidine-3-carboxylate], for which, in assay [1], the IC50 was 25.1 to 158 nM. For the same compound, in assay [2], the Ki is 0.0398 to 0.316 nM.

Regarding `Cc1cccc(-c2nccc(Nc3ccnc(Nc4ccc(C(=O)OCC5CNC5)nc4)n3)n2)n1` [Compound 545, azetidin-3-ylmethyl 5-((4-((2-(6-methylpyridin-2-yl)pyrimidin-4-yl)amino)pyrimidin-2-yl)amino)picolinate], the IC50 in assay [1] is 25.1 to 158 nM. The Ki in assay [2] is 0.0398 to 0.316 nM.

On to `Cc1cccc(-c2nccc(Nc3ccnc(Nc4ccc(S(=O)(=O)N5CCN(C(C)C)CC5)cc4)n3)n2)n1` [Compound 213, N2-[4-(4-isopropylpiperazin-1-yl)sulfonylphenyl]-N4-[2-(6-methyl-2-pyridyl)pyrimidin-4-yl]pyrimidine-2,4-diamine], for which the IC50 in assay [1] was 25.1 to 158 nM. Moreover, the Ki in assay [2] was 0.0398 to 0.316 nM.

Take `Fc1cc(F)c(-c2nccc(Nc3ccnc(Nc4ccc(N5CCOCC5)cc4)n3)n2)cc1Cl` [Compound 19, N4-[2-(5-chloro-2,4-difluoro-phenyl)pyrimidin-4-yl]-N2-(4-morpholinophenyl)pyrimidine-2,4-diamine]: the IC50 in assay [1] is 25.1 to 158 nM. For the same compound, in assay [2], the Ki was 3.98 to 31.6 nM.

`Cc1cccc(-c2nccc(Nc3ccnc(Nc4ccc(C5CCNCC5)cc4)n3)n2)n1` [Compound 133, N4-[2-(6-methyl-2-pyridyl)pyrimidin-4-yl]-N2-[4-(4-piperidyl)phenyl]pyrimidine-2,4-diamine]: the IC50 in assay [1] was 25.1 to 158 nM. The Ki in assay [2] is 0.0398 to 0.316 nM.

As for `Cc1cccc(-c2nccc(Nc3ccnc(Nc4ccc(CN5CC(C(=O)O)C5)cc4)n3)n2)n1` [Compound 237, 1-[[4-[[4-[[2-(6-methyl-2-pyridyl)pyrimidin-4-yl]amino]pyrimidin-2-yl]amino]phenyl]methyl] azetidine-3-carboxylic acid], the IC50 in assay [1] is 200 to 1260 nM. In assay [2], the Ki was 0.0398 to 0.316 nM.

With `Cc1cccc(-c2nccc(Nc3ccnc(Nc4csc(C(=O)O[C@@H]5CCNC5)c4)n3)n2)n1` [Compound 543, [(3R)-pyrrolidin-3-yl] 4-[[4-[[2-(6-methyl-2-pyridyl)pyrimidin-4-yl]amino]pyrimidin-2-yl]amino]thiophene-2-carboxylate], the IC50 in assay [1] is 25.1 to 158 nM. For the same compound, the Ki in assay [2] is 0.0398 to 0.316 nM.

In the case of `Cc1cccc(-c2nccc(Nc3ccnc(Nc4cncc(CN5CC(C(=O)OC6CCNCC6)C5)c4)n3)n2)n1` [Compound 565, 4-piperidyl 1-[[5-[[4-[[2-(6-methyl-2-pyridyl)pyrimidin-4-yl]amino]pyrimidin-2-yl]amino]-3-pyridyl]methyl]azetidine-3-carboxylate], the IC50 in assay [1] is 25.1 to 158 nM. The Ki in assay [2] is 0.0398 to 0.316 nM.

Regarding `Cc1cccc(-c2nccc(Nc3ccnc(Nc4ccc(C(=O)OC[C@@H]5CCCCN5)nc4)n3)n2)n1` [Compound 597, [(2S)-2-piperidyl]methyl 5-[[4-[[2-(6-methyl-2-pyridyl)pyrimidin-4-yl]amino]pyrimidin-2-yl]amino]pyridine-2-carboxylate], the IC50 in assay [1] was 25.1 to 158 nM. Further, the Ki in assay [2] is 0.0398 to 0.316 nM.

Regarding `Cc1cccc(-c2nccc(Nc3ccnc(Nc4ccc(N5CCNCC5CC(=O)OCC5CNC5)cc4)n3)n2)n1` (stereo not drawn) [Compound 402, azetidin-3-ylmethyl 2-[1-[4-[[4-[[2-(6-methyl-2-pyridyl)pyrimidin-4-yl]amino]pyrimidin-2-yl]amino]phenyl]piperazin-2-yl]acetate], in assay [1], the IC50 was 200 to 1260 nM. Besides, in assay [2], the Ki is 0.398 to 3.16 nM.

`Cc1ccc(O)cc1-c1nccc(Nc2ccnc(Nc3ccc(N4CCNCC4)cc3)n2)n1` [Compound 179, 4-methyl-3-[4-[[2-(4-piperazin-1-ylanilino)pyrimidin-4-yl]amino]pyrimidin-2-yl]phenol]: in assay [1], the IC50 is 25.1 to 158 nM. Moreover, the Ki in assay [2] was 0.398 to 3.16 nM.

As for `Cc1cccc(-c2nccc(Nc3ccnc(Nc4ccc(S(=O)(=O)NCCN(C)C)cc4)n3)n2)n1` [Compound 70, N-[2-(dimethylamino)ethyl]-4-[[4-[[2-(6-methyl-2-pyridyl)pyrimidin-4-yl]amino]pyrimidin-2-yl]amino]benzenesulfonamide], the IC50 in assay [1] is 25.1 to 158 nM. Further, the Ki in assay [2] is 0.0398 to 0.316 nM.

Regarding `Cc1cccc(-c2nccc(Nc3ccnc(Nc4ccc(CN5CCN(Cc6ccccc6)CC5)cc4)n3)n2)n1` [Compound 23, N2-[4-[(4-benzylpiperazin-1-yl)methyl]phenyl]-N4-[2-(6-methyl-2-pyridyl)pyrimidin-4-yl]pyrimidine-2,4-diamine], the IC50 in assay [1] is 25.1 to 158 nM. The Ki in assay [2] was 0.0398 to 0.316 nM.

For `Cc1cccc(-c2nccc(Nc3ccnc(Nc4ccc(CN5CCC[C@@H](C(=O)O)C5)cc4)n3)n2)n1` [Compound 428, (3R)-1-[[4-[[4-[[2-(6-methyl-2-pyridyl)pyrimidin-4-yl]amino]pyrimidin-2-yl]amino]phenyl]methyl] piperidine-3-carboxylic acid], the IC50 in assay [1] is 200 to 1260 nM. The Ki in assay [2] is 0.0398 to 0.316 nM.
